{"source": "ChEMBL document CHEMBL2074390", "about": "“Vectorial transport of bile salts across MDCK cells expressing both rat Na+-taurocholate cotransporting polypeptide and rat bile salt export pump” (Am J Physiol Gastrointest Liver Physiol, 2004)", "system": "MDCK", "description": "TP_TRANSPORTER: transepithelial transport (basal to apical) in Ntcp/Bsep double transfected MDCK cell"}
{"smiles": "C[C@H](CCC(=O)NCCS(=O)(=O)O)[C@H]1CC[C@H]2[C@@H]3[C@H](O)C[C@@H]4C[C@H](O)CC[C@]4(C)[C@H]3C[C@H](O)[C@]12C", "values": [{"measurement": "Km", "value": 22.2, "unit": "µM"}]}
